Test results taken from ChEMBL document CHEMBL1909046, “DrugMatrix in vitro pharmacology data”.

Columns and labels:
[1] = DRUGMATRIX: Tumor Necrosis Factor (TNF), Non-Selective radioligand binding (ligand: [125I] TNF-alpha); type: cell membranes, Membrane; conditions: u-937; Not Active = under 50% inhibition at 10 µM
[2] = target: T1, Alpha-2C adrenergic receptor (Homo sapiens, UniProt P18825); assay: DRUGMATRIX: Adrenergic Alpha-2C radioligand binding (ligand: [3H] MK-912); type: cell membranes, Sf9, Membrane; conditions: sf9
T1 sequence (P18825 whole entry): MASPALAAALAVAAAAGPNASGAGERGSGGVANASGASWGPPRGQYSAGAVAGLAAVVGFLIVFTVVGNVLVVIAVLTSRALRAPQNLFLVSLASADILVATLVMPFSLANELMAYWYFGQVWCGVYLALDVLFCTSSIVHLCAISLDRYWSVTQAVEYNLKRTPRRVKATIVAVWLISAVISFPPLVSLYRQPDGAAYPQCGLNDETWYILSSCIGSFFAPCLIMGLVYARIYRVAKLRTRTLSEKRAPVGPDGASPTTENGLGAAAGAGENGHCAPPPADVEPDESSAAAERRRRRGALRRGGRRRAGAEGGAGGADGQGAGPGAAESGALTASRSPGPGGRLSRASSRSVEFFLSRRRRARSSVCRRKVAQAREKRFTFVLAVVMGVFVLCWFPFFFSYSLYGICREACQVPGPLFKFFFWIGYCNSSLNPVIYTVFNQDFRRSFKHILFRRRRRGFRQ

[3] = target: Mitogen-activated protein kinase 1 (Homo sapiens, UniProt P28482); assay: DRUGMATRIX: Protein Serine/Threonine Kinase, ERK2 enzyme inhibition (substrate: Myelin Basic Protein); design: species or system Escherichia coli; conditions: Not Active = under 50% inhibition at 10 µM
Chain of Mitogen-activated protein kinase 1 (P28482 whole entry): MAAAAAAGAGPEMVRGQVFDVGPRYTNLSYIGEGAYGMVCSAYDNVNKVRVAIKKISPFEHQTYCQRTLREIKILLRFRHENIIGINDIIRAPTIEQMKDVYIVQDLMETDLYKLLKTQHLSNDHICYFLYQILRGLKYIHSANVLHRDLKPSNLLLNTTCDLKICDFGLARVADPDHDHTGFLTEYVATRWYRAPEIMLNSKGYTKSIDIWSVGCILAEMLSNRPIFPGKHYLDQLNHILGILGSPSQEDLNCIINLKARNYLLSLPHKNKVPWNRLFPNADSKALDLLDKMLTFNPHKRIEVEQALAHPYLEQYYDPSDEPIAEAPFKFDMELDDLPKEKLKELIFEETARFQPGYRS

[4] = target: Aldo-keto reductase family 1 member B1 (Rattus norvegicus, UniProt P07943); type: tissue-based, Lens of camera-type eye;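 also: inhibition of aldose reductase enzyme activity, measured with DL-glyceraldehyde as the substrate; in other assays of this panel Not Active means under 50% inhibition at 10 µM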
Cathepsin G = target: T2, Cathepsin G (Homo sapiens, UniProt P08311); type: tissue-based; conditions: neutrophil;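 also: inhibition of Cathepsin G enzyme activity, tested on an AMC-conjugated peptide substrate; in other assays of this panel Not Active means under 50% inhibition at 10 µM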
T2 sequence (P08311 whole entry): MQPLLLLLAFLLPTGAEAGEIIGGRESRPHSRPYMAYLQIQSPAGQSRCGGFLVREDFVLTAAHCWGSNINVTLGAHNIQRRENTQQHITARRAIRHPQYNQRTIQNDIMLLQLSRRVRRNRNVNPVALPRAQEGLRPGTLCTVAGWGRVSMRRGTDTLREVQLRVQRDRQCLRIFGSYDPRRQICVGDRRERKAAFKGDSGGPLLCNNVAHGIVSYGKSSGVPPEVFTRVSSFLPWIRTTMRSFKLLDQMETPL

Mu-type opioid receptor = Mu-type opioid receptor (Homo sapiens, UniProt P35372); assay: DRUGMATRIX: Opiate mu (OP3, MOP) radioligand binding (ligand: [3H] Diprenorphine); type: cell membranes, CHO-K1, Membrane; conditions: cho-k1; Not Active = under 50% inhibition at 10 µM
Chain of Mu-type opioid receptor (P35372 whole entry): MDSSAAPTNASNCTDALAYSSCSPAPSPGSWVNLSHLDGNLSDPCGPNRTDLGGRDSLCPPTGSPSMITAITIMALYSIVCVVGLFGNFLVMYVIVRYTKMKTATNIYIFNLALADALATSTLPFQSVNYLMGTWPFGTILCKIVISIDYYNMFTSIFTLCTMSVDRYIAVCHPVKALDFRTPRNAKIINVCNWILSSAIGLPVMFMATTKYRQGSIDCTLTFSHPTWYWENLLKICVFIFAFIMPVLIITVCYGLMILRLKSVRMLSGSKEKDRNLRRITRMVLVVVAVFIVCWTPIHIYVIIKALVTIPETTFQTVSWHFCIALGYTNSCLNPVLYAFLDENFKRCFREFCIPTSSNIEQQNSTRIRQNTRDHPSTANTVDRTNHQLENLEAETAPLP

[5] = target: Beta-2 adrenergic receptor (Homo sapiens, UniProt P07550); assay: DRUGMATRIX: Adrenergic beta2 radioligand binding (ligand: [3H] CGP-12177); type: cell membranes, Membrane; conditions: cho; Not Active = under 50% inhibition at 10 µM
Chain of Beta-2 adrenergic receptor (P07550 whole entry): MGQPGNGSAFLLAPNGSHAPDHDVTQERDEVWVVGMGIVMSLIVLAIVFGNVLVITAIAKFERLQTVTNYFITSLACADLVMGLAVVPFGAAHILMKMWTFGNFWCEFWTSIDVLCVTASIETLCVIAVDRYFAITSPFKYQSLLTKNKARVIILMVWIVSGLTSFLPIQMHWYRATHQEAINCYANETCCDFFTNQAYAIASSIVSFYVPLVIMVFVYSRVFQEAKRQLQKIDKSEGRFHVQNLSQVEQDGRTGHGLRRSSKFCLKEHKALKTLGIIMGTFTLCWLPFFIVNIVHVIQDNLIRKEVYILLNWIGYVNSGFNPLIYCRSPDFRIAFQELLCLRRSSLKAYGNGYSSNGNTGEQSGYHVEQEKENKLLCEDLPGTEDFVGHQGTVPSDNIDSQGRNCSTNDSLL

[6] = target: T3, Vasoactive intestinal polypeptide receptor 1 (Homo sapiens, UniProt P32241); type: cell membranes, Membrane; conditions: ht-29; also: in other assays of this panel Not Active means under 50% inhibition at 10 µM
T3 sequence (P32241 whole entry): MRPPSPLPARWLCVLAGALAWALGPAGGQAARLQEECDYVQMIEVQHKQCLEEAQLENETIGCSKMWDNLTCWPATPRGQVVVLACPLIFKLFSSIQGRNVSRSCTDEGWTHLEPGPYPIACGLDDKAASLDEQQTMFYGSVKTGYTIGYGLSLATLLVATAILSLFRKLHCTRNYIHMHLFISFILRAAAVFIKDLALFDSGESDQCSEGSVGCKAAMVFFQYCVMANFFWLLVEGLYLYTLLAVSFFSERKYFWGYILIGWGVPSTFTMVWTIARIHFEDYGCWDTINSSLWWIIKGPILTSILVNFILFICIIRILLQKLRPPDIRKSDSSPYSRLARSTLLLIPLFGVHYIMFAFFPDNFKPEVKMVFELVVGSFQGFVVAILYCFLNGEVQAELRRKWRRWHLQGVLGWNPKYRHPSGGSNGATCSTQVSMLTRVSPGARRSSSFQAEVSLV

[7] = DRUGMATRIX: Nicotinic Acetylcholine radioligand binding (ligand: [125I] Epibatidine); type: cell membranes, Membrane; conditions: imr-32; Not Active = under 50% inhibition at 10 µM
[8] = target: T4, Alpha-1D adrenergic receptor (Homo sapiens, UniProt P25100); type: cell membranes, HEK293, Membrane; conditions: hek293; also: in other assays of this panel Not Active means under 50% inhibition at 10 µM
T4 sequence (P25100 whole entry): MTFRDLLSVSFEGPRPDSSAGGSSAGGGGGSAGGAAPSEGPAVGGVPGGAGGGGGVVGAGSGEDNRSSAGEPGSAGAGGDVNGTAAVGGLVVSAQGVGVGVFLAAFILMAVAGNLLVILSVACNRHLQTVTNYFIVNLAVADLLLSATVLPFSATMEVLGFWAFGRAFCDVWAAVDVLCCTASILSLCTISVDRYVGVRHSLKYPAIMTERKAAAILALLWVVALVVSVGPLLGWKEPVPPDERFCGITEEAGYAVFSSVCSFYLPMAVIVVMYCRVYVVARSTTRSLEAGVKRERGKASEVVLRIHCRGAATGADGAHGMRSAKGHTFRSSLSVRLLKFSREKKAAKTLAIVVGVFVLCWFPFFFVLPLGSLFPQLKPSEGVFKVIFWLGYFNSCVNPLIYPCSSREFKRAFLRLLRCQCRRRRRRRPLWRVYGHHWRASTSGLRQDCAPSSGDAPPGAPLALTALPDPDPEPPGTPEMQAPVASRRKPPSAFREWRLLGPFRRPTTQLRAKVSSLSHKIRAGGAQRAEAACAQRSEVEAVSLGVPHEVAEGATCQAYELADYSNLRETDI

[9] = target: 5-hydroxytryptamine receptor 1B (Rattus norvegicus, UniProt P28564); type: cell membranes, Wistar, Cerebral cortex, Membrane; also: in other assays of this panel Not Active means under 50% inhibition at 10 µM
Chain of 5-hydroxytryptamine receptor 1B (P28564 whole entry): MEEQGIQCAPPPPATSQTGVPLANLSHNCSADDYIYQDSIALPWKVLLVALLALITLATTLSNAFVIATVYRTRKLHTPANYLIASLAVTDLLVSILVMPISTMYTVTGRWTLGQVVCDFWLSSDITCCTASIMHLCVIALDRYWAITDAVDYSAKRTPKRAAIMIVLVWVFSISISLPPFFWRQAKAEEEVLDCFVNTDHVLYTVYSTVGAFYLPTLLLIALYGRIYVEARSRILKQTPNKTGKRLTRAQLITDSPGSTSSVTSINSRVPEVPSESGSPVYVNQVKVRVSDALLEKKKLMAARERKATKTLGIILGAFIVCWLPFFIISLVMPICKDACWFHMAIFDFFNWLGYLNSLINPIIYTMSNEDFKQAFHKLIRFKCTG

[10] = DRUGMATRIX: Platelet-Derived Growth Factor (PDGF) radioligand binding (ligand: [125I] PDGF); type: cell-based; conditions: nih3t3; Not Active = under 50% inhibition at 10 µM
Cytochrome P450 2E1 = Cytochrome P450 2E1 (Homo sapiens, UniProt P05181); conditions: bti-tn-5b1-4; also: in other assays of this panel Not Active means under 50% inhibition at 10 µM
Chain of Cytochrome P450 2E1 (P05181 whole entry): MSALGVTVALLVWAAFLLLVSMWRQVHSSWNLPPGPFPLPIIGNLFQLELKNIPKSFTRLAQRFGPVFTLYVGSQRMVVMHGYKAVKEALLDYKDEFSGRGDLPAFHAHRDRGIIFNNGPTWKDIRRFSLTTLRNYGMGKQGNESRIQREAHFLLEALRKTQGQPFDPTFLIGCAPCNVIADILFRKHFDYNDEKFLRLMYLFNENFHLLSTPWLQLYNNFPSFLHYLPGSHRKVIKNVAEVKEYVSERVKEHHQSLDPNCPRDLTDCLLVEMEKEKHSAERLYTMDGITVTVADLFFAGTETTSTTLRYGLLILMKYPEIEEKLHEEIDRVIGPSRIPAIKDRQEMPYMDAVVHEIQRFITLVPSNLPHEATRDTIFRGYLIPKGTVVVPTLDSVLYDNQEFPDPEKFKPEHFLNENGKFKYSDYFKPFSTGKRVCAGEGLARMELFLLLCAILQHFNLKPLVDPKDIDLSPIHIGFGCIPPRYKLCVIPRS

C=C1CC[C@H](O)C/C1=C/C=C1\CCC[C@]2(C)[C@@H]([C@H](C)/C=C/[C@H](C)C(C)C)CC[C@@H]12 [ERGOCALCIFEROL]
Not Active: IC50 [1] | Ki [1] | IC50 [2] | IC50 [3] | IC50 [4] | IC50 (Cathepsin G) | IC50 (Mu-type opioid receptor) | IC50 [5] | IC50 [6] | IC50 [7] | Ki [7] | IC50 [8] | IC50 [9] | IC50 [10] | Ki [10] | IC50 (Cytochrome P450 2E1) | Ki (Cytochrome P450 2E1)

CCc1cccc2c3c([nH]c12)C(CC)(CC(=O)O)OCC3 (centres undefined) [ETODOLAC]
Not Active: IC50 [1] | Ki [1] | IC50 [2] | IC50 [3] | IC50 [4] | IC50 (Cathepsin G) | IC50 (Mu-type opioid receptor) | IC50 [5] | IC50 [6] | IC50 [7] | Ki [7] | IC50 [8] | IC50 [9] | IC50 [10] | Ki [10] | IC50 (Cytochrome P450 2E1) | Ki (Cytochrome P450 2E1)

Cc1c(-c2ccccc2)oc2c(C(=O)OCCN3CCCCC3)cccc2c1=O [FLAVOXATE]
Not Active: IC50 [1] | Ki [1] | IC50 [2] | IC50 [3] | IC50 [4] | IC50 (Cathepsin G) | IC50 (Mu-type opioid receptor) | IC50 [5] | IC50 [6] | IC50 [7] | Ki [7] | IC50 [8] | IC50 [9] | IC50 [10] | Ki [10] | IC50 (Cytochrome P450 2E1) | Ki (Cytochrome P450 2E1)

Nc1nc(=O)[nH]cc1F [FLUCYTOSINE]
Not Active: IC50 [1] | Ki [1] | IC50 [2] | IC50 [3] | IC50 [4] | IC50 (Cathepsin G) | IC50 (Mu-type opioid receptor) | IC50 [5] | IC50 [6] | IC50 [7] | Ki [7] | IC50 [8] | IC50 [9] | IC50 [10] | Ki [10] | IC50 (Cytochrome P450 2E1) | Ki (Cytochrome P450 2E1)

O=C1OC2(c3ccc(O)cc3Oc3cc(O)ccc32)c2ccccc21 [FLUORESCEIN]
Not Active: IC50 [1] | Ki [1] | IC50 [2] | IC50 [3] | IC50 [4] | IC50 (Cathepsin G) | IC50 (Mu-type opioid receptor) | IC50 [5] | IC50 [6] | IC50 [7] | Ki [7] | IC50 [8] | IC50 [9] | IC50 [10] | Ki [10] | IC50 (Cytochrome P450 2E1) | Ki (Cytochrome P450 2E1)

CC(=O)[C@@]1(O)CC[C@H]2[C@@H]3C[C@H](C)C4=CC(=O)C=C[C@]4(C)[C@@]3(F)[C@@H](O)C[C@@]21C [FLUOROMETHOLONE]
Not Active: IC50 [1] | Ki [1] | IC50 [2] | IC50 [3] | IC50 [4] | IC50 (Cathepsin G) | IC50 (Mu-type opioid receptor) | IC50 [5] | IC50 [6] | IC50 [7] | Ki [7] | IC50 [8] | IC50 [9] | IC50 [10] | Ki [10] | IC50 (Cytochrome P450 2E1) | Ki (Cytochrome P450 2E1)

O=c1[nH]cc(F)c(=O)[nH]1 [FLUOROURACIL]
Not Active: IC50 [1] | Ki [1] | IC50 [2] | IC50 [3] | IC50 [4] | IC50 (Cathepsin G) | IC50 (Mu-type opioid receptor) | IC50 [5] | IC50 [6] | IC50 [7] | Ki [7] | IC50 [8] | IC50 [9] | IC50 [10] | Ki [10] | IC50 (Cytochrome P450 2E1) | Ki (Cytochrome P450 2E1)
